From patent publication US6355687B1, “Cosmetic compositions containing substituted iminodibenzyl or fluorene derivatives” (Unilever Home and Personal Care USA, division of Conopco, …, priority 2000, dated 2002)
Values joined by “and” are separate entries in the source; they are usually repeats but may differ in a detail not shown here. Equal values may be shown once. Read-outs that look alike come from different tables or passages of the source.

System: human sebocytes
Experiment: Sebum suppression: 14C-acetate incorporation in cultured human sebocytes, test agent alone or with retinol
Assay type: cell-based
Details: for activity at 1 µM / activity at 10 µM: read-out: % of Control
Experimental: Compounds A through H were tested for their potential to suppress sebum expression, alone or in the presence of a retinoid.
Secondary cultures of human sebocytes obtained from an adult […] were grown in 48-well tissue culture plates (Costar Corp.; Cambridge, Mass.) or 96-well tissue culture plates (Packard Co.; Meriden, Conn.) until confluent. Sebocyte growth medium consisted of Clonetics Keratinocyte Basal Medium (KBM) supplemented with 14 μg/ml bovine pituitary extract, 0.4 μg/ml hydrocortisone, 5 μg/ml insulin, 10 ng/ml epidermal growth factor, 1.2×10−10 M cholera toxin, 100 units/ml penicillin, and 100 μg/ml streptomycin. All cultures were incubated at 37° C. in the presence of 7.5% CO2. Medium was changed three times per week.
On the day of experimentation, the growth medium was removed and the sebocytes washed three times with sterile Dulbecco's Modified Eagle Medium (DMEM; phenol red free). Fresh DMEM was added to each sample (duplicates, triplicates, or quadruplicates depending on the experiment) with 5 microliter of test agent solubilized in ethanol either alone or in the presence of one or 10 micromolar of retinol. Controls consisted of addition of ethanol alone, retinol alone, or phenol red, which has estrogen-like activity and is included as a positive control.
Each plate was returned to the incubator for 20 hours followed by the addition of 14C-acetate buffer (5 mM final concentration, 56 mCi/mmol specific activity). Sebocytes were returned to the incubator for four hours after which each culture was rinsed three times with phosphate buffered saline to remove unbound label. Radioactive label remaining in the sebocytes was harvested and counted using a Beckman scintillation counter.

[1] = 10 μM test compound + 10 μM Retinol
[2] = Homo sapiens, 1 μM test compound + 1 μM Retinol
[3] = Homo sapiens, 1 μM test compound + 10 μM Retinol
[4] = Homo sapiens, 1 μM test compound alone
[5] = Homo sapiens, 10 μM test compound + 1 μM Retinol
[6] = Homo sapiens, 10 μM test compound + 10 μM Retinol
[7] = Homo sapiens, 10 μM test compound alone

Compound	activity at 1 µM [2] [%]	activity at 1 µM [3] [%]	activity at 1 µM [4] [%]	activity at 10 µM [5] [%]	activity at 10 µM [6] [%]	activity at 10 µM [7] [%]	other results
CC(O)c1cccc(NC(=O)N2c3ccccc3CCc3ccccc32)c1 (stereo not drawn) [Compound A]							% of Control (1 μM test compound + 1 μM Retinol): 86.2%; % of Control (10 μM test compound + 1 μM Retinol): 85.8% and 45.9%; % of Control [1]: 80.1% and 44.3%; % of Control (10 μM test compound alone, 10 µM): 88.8%
O=C(Nc1ccc(O)cc1)N1c2ccccc2CCc2ccccc21 [Compound C]	83.7	70.3	91.4	27.5	1.4	41.5	sebum suppressive activity when combined with retinol (in the presence of retinol / a retinoid, summary in words): improved activity
Cc1c(Cl)cccc1NC(=O)N1c2ccccc2CCc2ccccc21 [Compound D]	75.4	74.3	80.1	105	88.7	101	% of Control (100 μM test compound + 1 μM Retinol): 1.1%; % of Control (100 μM test compound + 10 μM Retinol): 0.5%; % of Control (100 μM test compound alone): 1.8%
O=C(CC1c2ccccc2-c2ccccc21)N1CCC(O)(c2ccccc2)CC1 [Compound G]	114			65.3	63.8	63	% of Control (1 μM test compound + 10 μM Retinol): 80.2% and 102.9%; % of Control (1 μM test compound alone, 1 µM): 77.3% and 105.2%; % of Control [1]: 75.4%
CCCN(CCO)C(=O)CC1c2ccccc2-c2ccccc21 [Compound H]	76.8	68	65.9	71	73.5	71.1	
CC1=C(/C=C/C(C)=C/C=C/C(C)=C/CO)C(C)(C)CCC1 [Retinol, retinol, reference compound]							% of Control (1 μM Retinol alone): 98.4% and 99.9% and 85.5% and 99.3%; % of Control (10 μM Retinol alone): 101.8% and 111.7% and 100.1% and 81.8% and 104.8% and 95.2%; sebum suppressive activity (alone, summary in words): inactive
O=S1(=O)OC(c2ccc(O)cc2)(c2ccc(O)cc2)c2ccccc21 [Phenol Red, phenol red, reference compound]							% of Control (28 μM Phenol Red (positive control)): 84.4%; activity at 28 µM (Homo sapiens, 28 μM Phenol Red (positive control)): 67.6%
O=C(CC1c2ccccc2-c2ccccc21)N1CCC(O)(c2ccc(Cl)cc2)CC1 [Compound F]	35.7	29.3		15.3			% of Control (10 μM test compound alone): 26.7% and 75.0%
O=C(Nc1ccc(OC(F)(F)F)cc1)N1c2ccccc2CCc2ccccc21 [Compound B]	86	74.2	88.9	96	111	82	
